Like-named read-outs stand apart in the source and are kept apart here. Starred links: 1 amine or outer side, 2 acyl side, 3 side chain; linkers in the order of their positions; H or OH if unused. Positions of bridges follow the written chain, without caps; N, C: chain ends. Non-standard residues stand in square brackets, D forms with d. Residues, ends and D or L forms follow the SMILES beside them. ξ: configuration not given here. *: point of attachment. Phe(4-CF3) = N[C@@H](Cc1ccc(C(F)(F)F)cc1)C(=O)O; NMePhe(3-Cl) = CN[C@@H](Cc1cccc(Cl)c1)C(=O)O; NMeF = CN[C@@H](Cc1ccccc1)C(=O)O; NMeGABA = CN(CCCC(=O)[*:2])[*:1]; NMeI = CC[C@H](C)[C@H](NC)C(=O)O; hPhe = N[C@@H](CCc1ccccc1)C(=O)O; NMeβAla = CN(CCC(=O)[*:2])[*:1]; NMeL = CN[C@@H](CC(C)C)C(=O)O; NMeV = CN[C@H](C(=O)O)C(C)C; NMeA = CN[C@@H](C)C(=O)O; Piperidide = C1CCN(*)CC1; dNMeA = CN[C@H](C)C(=O)O; β3hA = C[C@H](N)CC(=O)O; ξL = CC(C)CC(N)C(=O)O; Sar = CNCC(=O)O; tBu = CC(C)(C)*
Columns and labels:
[1] = PAMPA (parallel artificial membrane permeability assay); type: in vitro ADME; details: for Papp at 18 hours, 50 µM: PAMPA
How it was run: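 Artificial membrane was 10% (w/v) egg lecithin plus 0.5% (w/v) cholesterol in dodecane on a PVDF filter. A 10 mM DMSO stock was added at 0.5% (v/v) to donor buffer (50 mM MOPSO, pH 6.5, 5.0% glycocholic acid). After 18 h at 37 °C, LC/MS or LC/UV gave donor and acceptor levels for Pe.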

[2] = Metabolic stability in human hepatic microsome; type: in vitro ADME; details: microsomes
[3] = membrane permeation rate (Pe), 50 mM MOPSO buffer pH 6.5 with 5.0% glycocholic acid, 37° C., 18 hours, read-out: iPAMPA Pe
[4] = pH 7.4, human hepatic microsome, NADPH(+), read-out: CL NADPH(+)

Row | SMILES | Papp at 18 hours, 50 µM [1, 3] [×10⁻⁶ cm/s] | microsomal CLint at 1 uM [2, 4] [µL/min/mg] | Papp at 18 hours, 50 µM ([1]; pH 6.5) [×10⁻⁶ cm/s] | microsomal CLint at 1 uM ([2]; human, pH 7.4, CL NADPH(+)) [µL/min/mg] | iPAMPA Pe ([1]; membrane permeation rate (Pe), 50 mM MOPSO buffer pH 6.5 with 5.0% glycocholic acid, 37° C., 18 hours)
1 | CC(C)C[C@H]1C(=O)N(C)[C@@H](CC(C)C)C(=O)N[C@@H]([C@@H](C)O)C(=O)N(C)[C@@H](Cc2ccccc2)C(=O)NCC(=O)N(C)[C@@H](C(C)C)C(=O)N[C@@H](Cc2ccccc2)C(=O)N[C@@H](C)CC(=O)N(C)CCC(=O)N[C@@H](COC(C)(C)C)C(=O)N1C [DP-777] (cyclo(F[β3hA][NMeβAla]S(tBu)[NMeL][NMeL]T[NMeF]G[NMeV])) | 39 | 428 |  |  | 
2 | CC(C)C[C@@H]1NC(=O)[C@H](CC(C)C)N(C)C(=O)[C@H](C)N(C)C(=O)C[C@@H](C(=O)N(C)[C@@H](Cc2ccccc2)C(=O)N[C@@H](C)C(=O)N2CCCCC2)NC(=O)[C@H](CC(C)C)N(C)C(=O)[C@H](Cc2ccccc2)NC(=O)[C@H](Cc2ccccc2)N(C)C(=O)[C@H](C)NC(=O)[C@H]([C@@H](C)O)NC(=O)[C@H](CC(C)C)N(C)C1=O [DP-350] ([NMeA][NMeL]L[NMeL]TA[NMeF]F[NMeL]D[NMeF]A-Piperidide; lactam N-10) | 2 | 29 |  |  | 
3 | CC(C)C[C@H]1C(=O)N(C)[C@@H](Cc2ccccc2)C(=O)N[C@@H]([C@@H](C)O)C(=O)N(C)[C@@H](C)C(=O)N(C)[C@@H](CC(C)C)C(=O)N(C)[C@@H](CC(C)C)C(=O)N[C@H](C(=O)N2CCCCC2)CC(=O)N(C)CCCC(=O)N[C@@H](COC(C)(C)C)C(=O)N(C)CC(=O)N1C [DP-122] ([NMeGABA]S(tBu)[Sar][NMeL][NMeF]T[NMeA][NMeL][NMeL]D-Piperidide; lactam N-10) |  |  | 32 | 169 | 
4 | CC(C)C[C@H]1C(=O)N(C)[C@@H](Cc2ccccc2)C(=O)N(C)[C@@H](CC(C)C)C(=O)N[C@H](C(=O)N2CCCCC2)CC(=O)N[C@H](C)C(=O)N[C@@H](C)C(=O)N[C@@H]([C@@H](C)O)C(=O)N(C)[C@@H](C)C(=O)N[C@@H](Cc2ccccc2)C(=O)N1C [DP-263] ([dA]AT[NMeA]F[NMeL][NMeF][NMeL]D-Piperidide; lactam N-9) | 34 | 136 |  |  | 
5 | CC(C)C[C@@H]1NC(=O)[C@@H](C)N(C)C(=O)C[C@@H](C(=O)N2CCCCC2)NC(=O)[C@H]([C@@H](C)O)NC(=O)[C@H](CC(C)C)N(C)C(=O)[C@H](CC(C)C)N(C)C(=O)[C@H](Cc2ccccc2)NC(=O)[C@H](CC(C)C)N(C)C(=O)[C@H](Cc2ccccc2)N(C)C1=O [DP-343] ([dNMeA]L[NMeF][NMeL]F[NMeL][NMeL]TD-Piperidide; lactam N-9) | 36 | 427 |  |  | 
6 | CC(C)C[C@H]1C(=O)N(C)[C@@H](CC(C)C)C(=O)N[C@@H](COC(C)(C)C)C(=O)N[C@H](C(=O)N2CCCCC2)CC(=O)N(C)CCCC(=O)N(C)[C@@H](Cc2ccccc2)C(=O)N[C@@H]([C@@H](C)O)C(=O)N(C)CC(=O)N1C [DP-695] ([NMeGABA][NMeF]T[Sar][NMeL][NMeL]S(tBu)D-Piperidide; lactam N-8) | 15 | 47 |  |  | 
7 | CC(C)C[C@H]1C(=O)N[C@H](C(=O)N(C)[C@@H](Cc2ccccc2)C(=O)N(C)[C@@H](Cc2ccccc2)C(=O)N[C@@H](C)C(=O)N2CCCCC2)CC(=O)N[C@@H](C)C(=O)N(C)[C@@H](Cc2ccccc2)C(=O)N(C)[C@@H](C)C(=O)N(C)[C@@H](CC(C)C)C(=O)N[C@@H]([C@@H](C)O)C(=O)N(C)[C@@H](C)C(=O)N(C)[C@@H](CC(C)C)C(=O)N[C@@H](C(C)C)C(=O)N1C [DP-203] (A[NMeF][NMeA][NMeL]T[NMeA][NMeL]V[NMeL]D[NMeF][NMeF]A-Piperidide; lactam N-10) | 11 | 18 |  |  | 
8 | CC(C)C[C@H]1C(=O)N(C)[C@@H](C(C)C)C(=O)N[C@@H](Cc2ccccc2)C(=O)N[C@H](C(=O)N2CCCCC2)CC(=O)N[C@H](C(C)C)C(=O)N[C@@H](COC(C)(C)C)C(=O)N(C)[C@@H](CC(C)C)C(=O)N[C@@H]([C@@H](C)O)C(=O)N(C)[C@@H](Cc2ccccc2)C(=O)NCC(=O)N1C [DP-171] ([dV]S(tBu)[NMeL]T[NMeF]G[NMeL][NMeV]FD-Piperidide; lactam N-10) | 50 | 191 |  |  | 
9 | CC[C@H](C)[C@H]1C(=O)N(C)[C@@H](Cc2ccccc2)C(=O)N[C@H](C(=O)N2CCCCC2)CC(=O)N(C)CCC(=O)NC(CC(C)C)C(=O)N(C)[C@@H](Cc2ccccc2)C(=O)N(C)[C@@H](CC(C)C)C(=O)N(C)[C@@H](C(C)C)C(=O)N[C@@H](C)C(=O)N(C)[C@@H](C)C(=O)N[C@@H]([C@@H](C)O)C(=O)N(C)CC(=O)N1C (stereo partly drawn) [DP-61] ([NMeβAla][ξL][NMeF][NMeL][NMeV]A[NMeA]T[Sar][NMeI][NMeF]D-Piperidide; lactam N-12) |  |  | 19 | 47 | 
10 | CC[C@H](C)[C@H](NC(=O)[C@H](Cc1ccccc1)N(C)C(=O)[C@H](Cc1cccc(Cl)c1)N(C)C(=O)[C@H](C)N(C)C(=O)[C@@H]1CCCN1C(=O)[C@@H]1CC(=O)N[C@@H](C)C(=O)N(C)[C@@H](CC(C)C)C(=O)N(C)[C@@H](Cc2ccccc2)C(=O)N[C@@H]([C@@H](C)O)C(=O)N(C)[C@@H](Cc2ccccc2)C(=O)N[C@@H](CC(C)C)C(=O)N1)C(=O)N1CCCCC1 [DP-915] (A[NMeL][NMeF]T[NMeF]LDP[NMeA][NMePhe(3-Cl)][NMeF]I-Piperidide; lactam N-7) |  | 89 |  |  | 1.0E−07
11 | CC(C)[C@@H]1NC(=O)[C@H](C)N(C)C(=O)[C@H](Cc2ccccc2)N(C)C(=O)[C@H](C)N(C)C(=O)[C@H]([C@@H](C)O)NC(=O)[C@H](C)N(C)C(=O)[C@H](C)N(C)C(=O)C[C@@H](C(=O)N(C)[C@@H](Cc2ccccc2)C(=O)N(C)[C@@H](Cc2ccccc2)C(=O)N[C@@H](C)C(=O)N2CCCCC2)NC(=O)[C@H](C)N(C)C(=O)[C@H](C)N(C)C1=O [DP-460] ([NMeA][NMeA]T[NMeA][NMeF][NMeA]V[NMeA][NMeA]D[NMeF][NMeF]A-Piperidide; lactam N-10) | 5.1 | 17 |  |  | 
12 | CC[C@H](C)[C@@H]1NC(=O)[C@H](C)NC(=O)C[C@H](C)NC(=O)[C@H](CC(C)C)NC(=O)[C@H](CC(C)C)NC(=O)[C@H](C(C)C)NC(=O)[C@H](C)N(C)C(=O)[C@H](Cc2ccc(C(F)(F)F)cc2)NC(=O)CNC(=O)[C@H]([C@@H](C)O)NC(=O)[C@H](CC(C)C)N(C)C(=O)[C@@H]2CCCN2C1=O [DP-807] (cyclo(AIP[NMeL]TG[Phe(4-CF3)][NMeA]VLL[β3hA])) |  |  | 15 | 81 | 
13 | CC(C)C[C@H]1C(=O)NCC(=O)N(C)[C@@H](Cc2ccccc2)C(=O)N(C)[C@@H](Cc2ccccc2)C(=O)N[C@@H]([C@@H](C)O)C(=O)N(C)[C@@H](C)C(=O)N[C@H](C(=O)N(C)[C@@H](Cc2ccccc2)C(=O)N(C)[C@@H](Cc2ccccc2)C(=O)N[C@@H](C)C(=O)N2CCCCC2)CC(=O)N(C)CCCC(=O)N[C@@H](C(C)C)C(=O)N1C [DP-402] ([NMeGABA]V[NMeL]G[NMeF][NMeF]T[NMeA]D[NMeF][NMeF]A-Piperidide; lactam N-9) |  |  | 24 | 185 | 
14 | CC[C@H](C)[C@@H]1NC(=O)CCN(C)C(=O)C[C@@H](C(=O)N2CCCCC2)NC(=O)[C@H](Cc2ccccc2)N(C)C(=O)[C@H](CC(C)C)N(C)C(=O)[C@H](C)N(C)C(=O)[C@H](Cc2ccccc2)N(C)C(=O)[C@H]([C@@H](C)O)NC(=O)[C@H](CC(C)C)N(C)C(=O)[C@H](C)N(C)C(=O)[C@H](CC(C)C)N(C)C1=O [DP-159] ([NMeβAla]I[NMeL][NMeA][NMeL]T[NMeF][NMeA][NMeL][NMeF]D-Piperidide; lactam N-11) | 39 | 54 |  |  | 
15 | CC[C@H](C)[C@@H]1NC(=O)[C@H](CC(C)C)NC(=O)[C@H](C(C)C)NC(=O)[C@H](CC(C)C)N(C)C(=O)[C@H](CC(C)C)NC(=O)[C@H](CCc2ccccc2)NC(=O)[C@H]([C@@H](C)O)NC(=O)[C@H](C)N(C)C(=O)[C@H](CC(C)C)NC(=O)[C@H](C)N(C)C(=O)C[C@@H](C(=O)N2CCCCC2)NC1=O [DP-728] ([NMeA]L[NMeA]T[hPhe]L[NMeL]VLID-Piperidide; lactam N-11) | 6.5 | 42 |  |  | 
16 | CC(C)C[C@H]1C(=O)N(C)[C@@H](C)C(=O)N(C)[C@@H](CC(C)C)C(=O)N[C@H](C(=O)N(C)[C@@H](Cc2ccccc2)C(=O)N(C)[C@@H](Cc2ccccc2)C(=O)N[C@@H](C)C(=O)N2CCCCC2)CC(=O)N(C)CCCC(=O)N[C@@H]([C@@H](C)O)C(=O)N(C)[C@@H](Cc2ccccc2)C(=O)N(C)[C@@H](CC(C)C)C(=O)N[C@@H](C(C)C)C(=O)N1C [DP-403] ([NMeGABA]T[NMeF][NMeL]V[NMeL][NMeA][NMeL]D[NMeF][NMeF]A-Piperidide; lactam N-9) | 18 | 57 |  |  | 
17 | CC[C@H](C)[C@@H]1NC(=O)[C@H](CC(C)C)N(C)C(=O)[C@H]([C@@H](C)O)NC(=O)[C@H](CC(C)C)N(C)C(=O)[C@H](C(C)C)NC(=O)[C@H](Cc2ccccc2)N(C)C(=O)CCN(C)C(=O)C[C@@H](C(=O)N2CCC[C@H]2C(=O)N[C@H](C(=O)N(C)[C@@H](Cc2cccc(Cl)c2)C(=O)N(C)[C@@H](Cc2ccccc2)C(=O)N[C@H](C(=O)N2CCCCC2)[C@@H](C)CC)C(C)C)NC1=O [DP-926] ([NMeβAla][NMeF]V[NMeL]T[NMeL]IDPV[NMePhe(3-Cl)][NMeF]I-Piperidide; lactam N-8) | 0.1 | 53 |  |  | 
18 | CC(C)C[C@@H]1NC(=O)[C@H](CC(C)C)N(C)C(=O)[C@H](C)NC(=O)[C@H](C)N(C)C(=O)[C@H]([C@@H](C)O)NC(=O)CN(C)C(=O)[C@H](C(C)C)N(C)C(=O)[C@H](CC(C)C)N(C)C(=O)[C@H](Cc2ccccc2)NC(=O)CN(C)C(=O)C[C@@H](C(=O)N2CCCCC2)NC1=O [DP-167] ([Sar]F[NMeL][NMeV][Sar]T[NMeA]A[NMeL]LD-Piperidide; lactam N-11) | 9.5 | 75 |  |  | 
